{"source": "ChEMBL document CHEMBL1155303", "about": "“Multiple strategies for the preparation of a sulfur-35 labeled NPC1L1 radioligand” (Bioorg Med Chem Lett, 2009)", "key": {"[1]": {"biological_target": "T1, NPC1-like intracellular cholesterol transporter 1 (Homo sapiens, UniProt Q9UHC9)", "T1 sequence (Q9UHC9 whole entry)": "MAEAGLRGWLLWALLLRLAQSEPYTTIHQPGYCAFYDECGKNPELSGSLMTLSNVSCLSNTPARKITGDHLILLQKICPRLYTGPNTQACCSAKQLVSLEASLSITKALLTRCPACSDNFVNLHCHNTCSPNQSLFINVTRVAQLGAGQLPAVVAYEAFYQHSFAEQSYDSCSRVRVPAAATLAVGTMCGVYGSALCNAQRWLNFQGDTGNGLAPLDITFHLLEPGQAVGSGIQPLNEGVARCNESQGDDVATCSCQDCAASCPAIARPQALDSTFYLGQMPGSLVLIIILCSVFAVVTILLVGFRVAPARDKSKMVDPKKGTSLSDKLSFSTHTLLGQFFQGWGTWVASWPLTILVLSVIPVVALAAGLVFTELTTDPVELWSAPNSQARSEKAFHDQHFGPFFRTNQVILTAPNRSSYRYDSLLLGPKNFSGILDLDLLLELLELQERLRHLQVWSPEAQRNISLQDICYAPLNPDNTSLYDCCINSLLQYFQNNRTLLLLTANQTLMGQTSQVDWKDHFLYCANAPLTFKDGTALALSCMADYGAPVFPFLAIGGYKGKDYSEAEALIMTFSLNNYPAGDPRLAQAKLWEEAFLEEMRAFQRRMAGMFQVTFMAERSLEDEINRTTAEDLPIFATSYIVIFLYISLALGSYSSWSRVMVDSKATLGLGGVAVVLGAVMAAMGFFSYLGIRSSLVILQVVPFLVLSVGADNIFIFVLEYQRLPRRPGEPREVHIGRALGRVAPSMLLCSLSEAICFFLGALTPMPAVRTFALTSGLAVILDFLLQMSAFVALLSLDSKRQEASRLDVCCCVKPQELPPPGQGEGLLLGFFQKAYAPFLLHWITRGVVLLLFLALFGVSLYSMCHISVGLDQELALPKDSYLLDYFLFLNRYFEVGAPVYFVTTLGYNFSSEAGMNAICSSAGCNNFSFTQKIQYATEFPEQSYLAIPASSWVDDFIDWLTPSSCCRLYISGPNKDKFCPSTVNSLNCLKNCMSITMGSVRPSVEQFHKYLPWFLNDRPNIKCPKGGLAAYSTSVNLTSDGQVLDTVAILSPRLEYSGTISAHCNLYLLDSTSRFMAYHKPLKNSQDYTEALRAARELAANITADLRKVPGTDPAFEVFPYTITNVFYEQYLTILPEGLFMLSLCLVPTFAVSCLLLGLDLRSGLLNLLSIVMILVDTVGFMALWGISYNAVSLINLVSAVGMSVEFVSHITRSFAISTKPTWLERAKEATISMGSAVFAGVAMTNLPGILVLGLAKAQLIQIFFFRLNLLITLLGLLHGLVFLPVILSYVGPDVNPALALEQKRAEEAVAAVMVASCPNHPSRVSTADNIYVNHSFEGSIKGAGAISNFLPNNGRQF", "assay": "(§1) Displacement of [35S](2S,3S,4S,5R,6S)-6-(4-((2S,3R)-3-((S)-3-(4-fluorophenyl)-3-hydroxypropyl)-1-(4-(3-(methylsulfonamido)prop-1-ynyl)phenyl)-4-oxoazetidin-2-yl)phenoxy)-3,4,5-trihydroxytetrahydro-2H-pyran-2-carboxylic acid from human intestinal brush border membrane NPC1L1 by single tube filtration assay"}, "[2]": {"biological_target": "NPC1-like intracellular cholesterol transporter 1 (Mus musculus, UniProt Q6T3U4)", "sequence (Q6T3U4 21-1333 limits assumed)": "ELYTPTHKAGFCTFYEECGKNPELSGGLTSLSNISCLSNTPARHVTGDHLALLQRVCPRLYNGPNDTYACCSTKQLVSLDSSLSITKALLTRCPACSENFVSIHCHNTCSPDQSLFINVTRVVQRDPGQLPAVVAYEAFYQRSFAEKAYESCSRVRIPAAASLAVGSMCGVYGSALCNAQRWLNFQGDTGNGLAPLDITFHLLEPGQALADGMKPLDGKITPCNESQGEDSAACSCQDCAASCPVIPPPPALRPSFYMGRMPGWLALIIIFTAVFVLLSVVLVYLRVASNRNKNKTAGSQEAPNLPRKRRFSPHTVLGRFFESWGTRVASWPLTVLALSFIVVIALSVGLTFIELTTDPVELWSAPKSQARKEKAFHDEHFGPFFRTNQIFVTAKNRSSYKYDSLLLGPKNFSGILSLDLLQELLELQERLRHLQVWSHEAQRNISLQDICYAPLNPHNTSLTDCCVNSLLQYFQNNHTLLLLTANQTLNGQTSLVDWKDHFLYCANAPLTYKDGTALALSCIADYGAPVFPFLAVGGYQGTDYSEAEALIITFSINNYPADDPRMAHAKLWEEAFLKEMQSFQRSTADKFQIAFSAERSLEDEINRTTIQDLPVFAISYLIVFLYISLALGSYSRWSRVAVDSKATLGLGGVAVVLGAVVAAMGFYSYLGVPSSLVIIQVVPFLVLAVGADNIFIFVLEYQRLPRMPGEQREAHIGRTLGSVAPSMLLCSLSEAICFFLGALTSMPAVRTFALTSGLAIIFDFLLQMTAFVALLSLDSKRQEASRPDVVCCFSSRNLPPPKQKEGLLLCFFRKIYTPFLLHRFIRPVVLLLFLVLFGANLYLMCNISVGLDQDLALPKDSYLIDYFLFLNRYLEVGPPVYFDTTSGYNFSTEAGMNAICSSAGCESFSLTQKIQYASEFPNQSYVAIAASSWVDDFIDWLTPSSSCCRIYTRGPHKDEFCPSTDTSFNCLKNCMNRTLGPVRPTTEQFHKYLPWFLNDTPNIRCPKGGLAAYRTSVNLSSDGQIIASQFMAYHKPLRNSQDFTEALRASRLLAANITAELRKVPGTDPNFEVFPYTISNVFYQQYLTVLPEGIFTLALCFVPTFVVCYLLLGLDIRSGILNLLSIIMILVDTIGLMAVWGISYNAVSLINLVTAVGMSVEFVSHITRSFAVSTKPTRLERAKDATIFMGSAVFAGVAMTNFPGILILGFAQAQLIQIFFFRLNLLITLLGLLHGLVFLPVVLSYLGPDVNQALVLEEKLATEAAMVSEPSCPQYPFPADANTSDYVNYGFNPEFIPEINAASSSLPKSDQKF", "assay": "as §1, with “recombinant mouse” for “human intestinal brush border membrane”, “NPC1L1 expressed in HEK cells” for “NPC1L1”", "assay_type": "cell-based, HEK293"}, "[3]": {"biological_target": "T2, NPC1-like intracellular cholesterol transporter 1 (Rattus norvegicus, UniProt Q6T3U3)", "T2 sequence (Q6T3U3 21-1331 limits assumed)": "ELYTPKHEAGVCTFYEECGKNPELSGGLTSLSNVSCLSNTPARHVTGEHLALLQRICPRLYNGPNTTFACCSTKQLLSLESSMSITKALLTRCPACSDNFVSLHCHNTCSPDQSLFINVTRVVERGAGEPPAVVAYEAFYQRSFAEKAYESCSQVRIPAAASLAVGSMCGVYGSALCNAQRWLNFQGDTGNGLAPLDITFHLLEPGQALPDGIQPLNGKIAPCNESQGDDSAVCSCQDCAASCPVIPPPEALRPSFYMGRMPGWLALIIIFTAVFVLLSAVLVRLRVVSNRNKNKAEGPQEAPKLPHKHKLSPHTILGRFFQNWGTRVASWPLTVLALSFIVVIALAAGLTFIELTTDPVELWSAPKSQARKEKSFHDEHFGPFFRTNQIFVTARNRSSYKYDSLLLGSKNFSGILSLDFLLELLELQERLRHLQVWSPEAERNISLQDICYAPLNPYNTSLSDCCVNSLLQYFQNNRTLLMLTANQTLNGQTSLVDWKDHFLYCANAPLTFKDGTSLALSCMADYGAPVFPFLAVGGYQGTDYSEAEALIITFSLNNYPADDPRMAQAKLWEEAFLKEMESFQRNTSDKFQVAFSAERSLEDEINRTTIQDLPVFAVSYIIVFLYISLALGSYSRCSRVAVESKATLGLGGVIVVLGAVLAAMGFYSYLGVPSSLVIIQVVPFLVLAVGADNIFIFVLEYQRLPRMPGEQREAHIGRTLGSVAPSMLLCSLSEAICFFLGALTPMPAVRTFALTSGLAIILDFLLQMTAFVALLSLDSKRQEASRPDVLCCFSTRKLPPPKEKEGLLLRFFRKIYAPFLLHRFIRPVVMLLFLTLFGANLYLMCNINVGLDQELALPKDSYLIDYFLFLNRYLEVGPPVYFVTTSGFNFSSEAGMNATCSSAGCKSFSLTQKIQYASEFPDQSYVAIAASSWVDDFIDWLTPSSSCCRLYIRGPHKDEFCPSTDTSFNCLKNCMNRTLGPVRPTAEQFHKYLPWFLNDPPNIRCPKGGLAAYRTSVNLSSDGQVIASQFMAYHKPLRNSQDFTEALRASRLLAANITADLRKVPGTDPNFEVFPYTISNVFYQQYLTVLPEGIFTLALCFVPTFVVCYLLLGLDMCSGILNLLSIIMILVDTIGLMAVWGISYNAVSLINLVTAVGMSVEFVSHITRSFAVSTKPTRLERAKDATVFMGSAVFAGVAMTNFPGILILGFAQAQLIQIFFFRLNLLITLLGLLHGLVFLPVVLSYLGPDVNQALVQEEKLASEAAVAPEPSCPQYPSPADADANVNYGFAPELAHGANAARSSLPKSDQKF", "assay": "as §1, with “recombinant rat” for “human intestinal brush border membrane”, “NPC1L1 expressed in HEK cells” for “NPC1L1”", "assay_type": "cell-based, HEK293"}, "[4]": {"biological_target": "T1, NPC1-like intracellular cholesterol transporter 1", "assay": "as §1, with “from recombinant” for “from”, “human” for “human intestinal brush border membrane”, “NPC1L1 expressed in HEK cells” for “NPC1L1”", "assay_type": "cell-based, HEK293"}, "[5]": {"biological_target": "T2, NPC1-like intracellular cholesterol transporter 1", "assay": "as §1, with “rat” for “human”"}}}
{"compound": "C[35S](=O)(=O)NCC#Cc1ccc(N2C(=O)[C@H](CC[C@H](O)c3ccc(F)cc3)[C@H]2c2ccc(O[C@@H]3O[C@H](C(=O)O)[C@@H](O)[C@H](O)[C@H]3O)cc2)cc1", "values": [{"measurement": "IC50", "setting": "[1]", "result": 4, "unit": "nM"}, {"measurement": "IC50", "setting": "[2]", "result": 44, "unit": "nM"}, {"measurement": "IC50", "setting": "[3]", "result": 4, "unit": "nM"}, {"measurement": "IC50", "setting": "[4]", "result": 4, "unit": "nM"}, {"measurement": "IC50", "setting": "[5]", "result": 4, "unit": "nM"}]}
